These results are taken from patent US20180000085A1, “USE OF PICOLINAMIDE COMPOUNDS WITH FUNGICIDAL ACTIVITY” (DOW AGROSCIENCES LLC, priority 2014, published 2018).

The subject of one assay is Zymoseptoria tritici. Description: Leaf blotch of wheat (SEPTTR) disease control on wheat seedlings. The class given is in vivo. On the set-up: key to SEPTTR 1DP, HV activity at 100 ppm (% control rating) / SEPTTR 3DC, HV activity at 100 ppm (% control rating) / SEPTTR disease control, 1DP / SEPTTR disease control, 3DC / SEPTTR 1DP disease control rating, HV activity / SEPTTR 3DC disease control rating, HV activity / SEPTTR 3DC, LV activity at 125.1 g/H (% Control rating) / SEPTTR 1DP, LV activity at 125.1 g/H (% Control rating) / SEPTTR 1DP disease control rating, LV activity at 125.1 g/H / SEPTTR 3DC disease control rating, LV activity at 125.1 g/H / SEPTTR 3DC disease control rating, HV activity at 100 ppm / SEPTTR 1DP disease control rating, HV activity at 100 ppm / HV activity at 100 ppm SEPTTR 3DC (disease control rating) / HV activity at 100 ppm SEPTTR 1DP (disease control rating) / LV activity at 125.1 g/H SEPTTR 1DP (disease control rating) / LV activity at 125.1 g/H SEPTTR 3DC (disease control rating): A: > 80; B: ≤ 80; C: Not Tested; D: No Activity Observed in the Reported Assay. As to conditions: for SEPTTR 1DP disease control rating, HV activity at 100 ppm / SEPTTR 3DC disease control rating, HV activity at 100 ppm: high volume application; for SEPTTR 1DP disease control rating, HV activity at 100 ppm: 1 day protectant; for SEPTTR 3DC disease control rating, HV activity at 100 ppm: 3 day curative.

The test system of a further assay is Puccinia triticina. In words: Wheat brown rust (PUCCRT) disease control on wheat seedlings. The class given is in vivo. On the set-up: key to PUCCRT 3DC, HV activity at 100 ppm (% control rating) / PUCCRT disease control, 3DC / PUCCRT 1DP disease control rating, HV activity / PUCCRT 3DC disease control rating, HV activity / PUCCRT 3DC, LV activity at 125.1 g/H (% Control rating) / PUCCRT 1DP, LV activity at 125.1 g/H (% Control rating) / PUCCRT 3DC disease control rating, LV activity at 125.1 g/H / PUCCRT 1DP disease control rating, LV activity at 125.1 g/H / PUCCRT 3DC disease control rating, HV activity at 100 ppm / PUCCRT 1DP disease control rating, HV activity at 100 ppm / HV activity at 100 ppm PUCCRT 3DC (disease control rating) / LV activity at 125.1 g/H PUCCRT 1DP (disease control rating) / LV activity at 125.1 g/H PUCCRT 3DC (disease control rating): A: > 80; B: ≤ 80; C: Not Tested; D: No Activity Observed in the Reported Assay. As to conditions: for PUCCRT 1DP disease control rating, HV activity at 100 ppm / PUCCRT 3DC disease control rating, HV activity at 100 ppm: high volume application; for PUCCRT 1DP disease control rating, HV activity at 100 ppm: 1 day protectant; for PUCCRT 3DC disease control rating, HV activity at 100 ppm: 3 day curative.

[1] abbreviates: low volume application, 125.1 g/H, 1 Day Protectant, wheat leaf blotch.
The mark [2] stands for this setting: low volume application, 125.1 g/H, 3 Day Curative, wheat leaf blotch.
The mark [3] stands for this setting: low volume application, 125.1 g/H, 1 Day Protectant, wheat brown rust.
Where [4] appears, read: low volume application, 125.1 g/H, 3 Day Curative, wheat brown rust.
The mark [5] stands for this setting: low volume application, 125.1 g/H, 1 Day Protectant.
[6] abbreviates: low volume application, 125.1 g/H, 3 Day Curative.

Each structure is given as a SMILES string.

As to `COc1cc(O[C@@H]([C@H](C)OC(=O)[C@H](C)NC(=O)c2nccc(OC)c2O)C(C)(C)C)ccc1Cl` [Cmpd 1001], in the assay on Zymoseptoria tritici, the “SEPTTR 1DP disease control rating, HV activity at 100 ppm” value is listed as “B (≤ 80)” and the “SEPTTR 3DC disease control rating, HV activity at 100 ppm” value is “D”. For the same molecule, in the assay on Puccinia triticina, the “PUCCRT 1DP disease control rating, HV activity at 100 ppm” value was “A (> 80)” and the “PUCCRT 3DC disease control rating, HV activity at 100 ppm” value was “A (> 80)”.
For the molecule `CCC(CC)[C@@H](Oc1ccc(Cl)cc1)[C@H](C)OC(=O)[C@@H](NC(=O)c1nccc(OC)c1O)C(C)C` [Cmpd 407], in the assay with Zymoseptoria tritici (HV application at 100 ppm, 1 Day Protectant, wheat leaf blotch), the “SEPTTR 1DP disease control rating, HV activity” value is reported as “B (≤ 80)”. Moreover, the “SEPTTR 3DC disease control rating, HV activity” value in the assay on Zymoseptoria tritici (HV application at 100 ppm, 3 Day Curative, wheat leaf blotch) is reported as “D”. Also, the “PUCCRT 1DP disease control rating, HV activity” value in the assay on Puccinia triticina (HV application at 100 ppm, 1 Day Protectant, wheat brown rust) is on record as “B (≤ 80)”. The “PUCCRT 3DC disease control rating, HV activity” value with Puccinia triticina (HV application at 100 ppm, 3 Day Curative, wheat brown rust) was “B (≤ 80)”.
For the molecule `C=CC[C@@H](OCC1CC1)[C@H](C)OC(=O)[C@H](C)NC(=O)c1nccc(OC)c1O` [Cmpd 1024], in the assay with Zymoseptoria tritici, the “SEPTTR 1DP disease control rating, HV activity at 100 ppm” value was “D” and the “SEPTTR 3DC disease control rating, HV activity at 100 ppm” value was “B (≤ 80)”. For the same molecule, in the assay on Puccinia triticina, the “PUCCRT 1DP disease control rating, HV activity at 100 ppm” value was “B (≤ 80)” and the “PUCCRT 3DC disease control rating, HV activity at 100 ppm” value was “A (> 80)”.
In the case of `COc1ccnc(C(=O)N[C@@H](C)C(=O)O[C@@H](C)[C@@H](CC(C)C)Oc2ccc(C)cc2Cl)c1OC(C)=O` [Cmpd 1115], the “LV activity at 125.1 g/H SEPTTR 1DP (disease control rating)” value (“LV activity at 125.1 g/H SEPTTR 1DP” for short) in the assay with Zymoseptoria tritici (setting [1]) was “B (≤ 80)”. For the same molecule, in the assay on Zymoseptoria tritici (setting [2]), the “LV activity at 125.1 g/H SEPTTR 3DC (disease control rating)” value (“LV activity at 125.1 g/H SEPTTR 3DC” below) was “B (≤ 80)”. Further, in the assay with Puccinia triticina (setting [3]), the “LV activity at 125.1 g/H PUCCRT 1DP (disease control rating)” value (shortened to “LV activity at 125.1 g/H PUCCRT 1DP”) is “A (> 80)”. Besides, the “LV activity at 125.1 g/H PUCCRT 3DC (disease control rating)” value (“LV activity at 125.1 g/H PUCCRT 3DC” for short) in the assay with Puccinia triticina (setting [4]) is “A (> 80)”.
As for `COc1cc(O[C@H](C2CC2)[C@H](C)OC(=O)[C@H](C)NC(=O)c2nccc(OC)c2O)ccc1Cl` [Cmpd 1000], in the assay on Zymoseptoria tritici, the “SEPTTR 1DP disease control rating, HV activity at 100 ppm” value is on record as “B (≤ 80)” and the “SEPTTR 3DC disease control rating, HV activity at 100 ppm” value was “B (≤ 80)”. Besides, in the assay with Puccinia triticina, the “PUCCRT 1DP disease control rating, HV activity at 100 ppm” value is given as “A (> 80)” and the “PUCCRT 3DC disease control rating, HV activity at 100 ppm” value is “A (> 80)”.
For the molecule `C=CC[C@@H](Oc1cccc(Cl)c1)[C@H](C)OC(=O)[C@H](C)NC(=O)c1nccc(OC)c1OCOC(C)=O` [Cmpd 1083], the “LV activity at 125.1 g/H SEPTTR 1DP” value with Zymoseptoria tritici (setting [1]) is given as “B (≤ 80)”. For the same molecule, the “LV activity at 125.1 g/H SEPTTR 3DC” value with Zymoseptoria tritici (setting [2]) was “A (> 80)”. In the assay with Puccinia triticina (setting [3]), the “LV activity at 125.1 g/H PUCCRT 1DP” value is given as “A (> 80)”. Besides, the “LV activity at 125.1 g/H PUCCRT 3DC” value in the assay with Puccinia triticina (setting [4]) was “A (> 80)”.
Consider `COCC(OC(=O)C(C)NC(=O)c1nccc(OC)c1OCOC(C)=O)C(Oc1ccccc1)C(C)C` (stereo not drawn) [Cmpd 1090], for which the “LV activity at 125.1 g/H SEPTTR 1DP” value with Zymoseptoria tritici (setting [1]) is “D”. Further, in the assay on Zymoseptoria tritici (setting [2]), the “LV activity at 125.1 g/H SEPTTR 3DC” value is “D”. Moreover, the “LV activity at 125.1 g/H PUCCRT 1DP” value with Puccinia triticina (setting [3]) is “D”. Further, in the assay with Puccinia triticina (setting [4]), the “LV activity at 125.1 g/H PUCCRT 3DC” value is recorded as “B (≤ 80)”.
Consider `CC(=O)OCOc1c(Br)ccnc1C(=O)N[C@@H](C)C(=O)O[C@@H](C)[C@H](Oc1ccccc1)C(C)C` [Cmpd 1086], for which the “LV activity at 125.1 g/H SEPTTR 1DP” value in the assay on Zymoseptoria tritici (setting [1]) is reported as “D”. Moreover, the “LV activity at 125.1 g/H SEPTTR 3DC” value in the assay on Zymoseptoria tritici (setting [2]) is reported as “D”. Moreover, the “LV activity at 125.1 g/H PUCCRT 1DP” value in the assay on Puccinia triticina (setting [3]) is reported as “B (≤ 80)”. The “LV activity at 125.1 g/H PUCCRT 3DC” value with Puccinia triticina (setting [4]) was “D”.
In the case of `COc1ccnc(C(=O)N[C@@H](C)C(=O)O[C@@H](C)[C@H](Oc2ccc(Cl)cc2Cl)C(C)C)c1OCOC(C)=O` [Cmpd 562], the “SEPTTR 1DP, LV activity at 125.1 g/H (% Control rating)” value in the assay with Zymoseptoria tritici (setting [5]) is “D”. In addition, the “SEPTTR 3DC, LV activity at 125.1 g/H (% Control rating)” value with Zymoseptoria tritici (setting [6]) is given as “A (> 80)”. In addition, the “PUCCRT 1DP, LV activity at 125.1 g/H (% Control rating)” value with Puccinia triticina (setting [5]) is “A (> 80)”. The “PUCCRT 3DC, LV activity at 125.1 g/H (% Control rating)” value with Puccinia triticina (setting [6]) is “A (> 80)”.
